Source: patent US20040138199A1, “Benzoxazines and derivatives thereof as therapeutic agents” (priority 2002, published 2004)

Molecular target: T1, p101/p110γ protein (PI3Kγ) (Homo sapiens, UniProt P48736)
T1 construct: HA; made in house; host or cells: Spodoptera frugiperda (Sf9) cells, baculovirus coinfection
Assay: PI3Kγ In Vitro Kinase Assay
Format: biochemical
Conditions: purified recombinant p101/p110γ with G protein β1/γ2 subunits; 20 μM ATP, 25 μM PIP2; 20 minutes at room temperature; radioactive PIP3 readout
Description: Spodtera frugiperda cells, grown in ESF921 media, were coinfected with baculovirus expressing a glu-tagged […] and baculovirus expressing an HA-tagged p110γ, at a 3:1 ratio of p110 baculovirus to p110γ baculovirus. Sf9 cells were grown to 1×10^7 total cells/mL in 10L bioreactors and harvested 48-72 hours post infection. Samples of infected cells were then tested for expression of p101/p110γ PI3 kinase by immunoprecipitation and Western Blot analysis methods (see below).
To purify PI3Kγ, 4 volumes of room temperature hypotonic lysis buffer (1 mM MgCl2, 1 mM DTT, 5 mM EGTA, 1 mM Pefabloc, 0.5 μM aprotinin, […], 2 μM pepstatin, 5 μM E64, pH 8) per gram of cell paste, was poured onto frozen cell pellets with stirring, then lysed in a nitrogen “bomb” at 400 psi (599HC T316, Parr Instrument Co, Moline, Ill.). NaCl was added to 150 mM, and sodium cholate was added to 1% and mixed for another 45 minutes. The lysates were clarified by centrifugation for 25 minutes at 14,000 rpm. The lysates were then loaded over anti-glu-linked Protein-G Sepaharose beads (Covance Research Products, Richmond, Calif.) using 20 mL resin/50 g cell paste. The column was washed with 15 volumes of wash buffer (1 mM DTT, 0.2 mM EGTA, 1 mM Pefabloc, 0.5 μM aprotinin, 5 μM leupeptin, 2 μM pepstatin, 5 μM E64, 150 mM NaCl, 1% sodium cholate, pH 8). PI3Kγ was eluted with 6 column volumes of wash buffer that contain 100 μg/mL of a peptide that competes for binding of the glu tag. The column fractions with the eluted protein (determined by taking OD280 readings) were collected and dialyzed in 0.2 mM EGTA, 1 mM DTT, 1 mM Pefabloc, 5 μM leupeptin, 0.5% sodium cholate, 150 mM NaCl, and 50% glycerol, pH 8. The fractions were stored at −80° C. until further use.
Spodtera frugiperda cells were coinfected with baculovirus expressing a glu-tagged G protein β1 and baculovirus expressing a […] at a 1:1 ratio of glu-tagged G protein β1 baculovirus to G protein β2 baculovirus. Sf9 cells are grown in 10 L bioreactors and harvested 48-72 hours post infection. Samples of infected cells were tested for G protein β1/β2 expression by Western Blot analysis, as described below. Cell lysates were homogenized and loaded onto a column of glu-tagged beads as in Biological Example 1 and competed off the column with a glu peptide as described in Biological Example 1.
The inhibitory properties of the compounds in Table 1 were assayed in an in vitro PI3K assay. In a 96-well polypropylene plate, each well was spotted with 2 μL of 50 times the desired final concentration of compound in DMSO. Purified recombinant p101/p110γ protein (0.03 μg; ˜2.7 nM) and G protein β1/γ2 subunits (0.09 μg; −57.7 nM) for each reaction was combined in the assay buffer (30 mM HEPES, 100 mM NaCl, 1 mM EGTA, and 1 mM DTT). ATP and [γ-^32P-ATP] (0.09 μCi) were added to this mixture so that the final ATP concentration in the reaction was 20 μM. Lipid micelles were formed by sonicating phosphatidylinositol-4,5-diphosphate (PIP2), phosphatidylethanolamine (PE), and Na-cholate in the assay buffer for 10 minutes, adding MgCL2 and incubating on ice for 20 minutes, for final concentrations of 25 μM PIP2, 300 μM PE, 0.02% Na-cholate, and 10 mM MgCl2 in the reaction. The reactions were started by adding equal volumes lipid and enzyme mixture in a total volume of 50 μL, allowed to run for 20 minutes at room temperature, and stopped with 100 μL 75 mM H3PO4. The lipid product was transferred to a glass fiber filter plate and washed with 75 mM H3PO4 several times. The presence of radioactive lipid product (PIP3) was measured by adding Wallac Optiphase mix to each well and counting in a Wallac 1450 Trilux plate reader (PerkinElmer Life Sciences Inc., Boston, Mass. 02118). The IC50 for each compound tested is reported in μM in Table 1: […]

T1 sequence (P48736 whole entry, species assumed): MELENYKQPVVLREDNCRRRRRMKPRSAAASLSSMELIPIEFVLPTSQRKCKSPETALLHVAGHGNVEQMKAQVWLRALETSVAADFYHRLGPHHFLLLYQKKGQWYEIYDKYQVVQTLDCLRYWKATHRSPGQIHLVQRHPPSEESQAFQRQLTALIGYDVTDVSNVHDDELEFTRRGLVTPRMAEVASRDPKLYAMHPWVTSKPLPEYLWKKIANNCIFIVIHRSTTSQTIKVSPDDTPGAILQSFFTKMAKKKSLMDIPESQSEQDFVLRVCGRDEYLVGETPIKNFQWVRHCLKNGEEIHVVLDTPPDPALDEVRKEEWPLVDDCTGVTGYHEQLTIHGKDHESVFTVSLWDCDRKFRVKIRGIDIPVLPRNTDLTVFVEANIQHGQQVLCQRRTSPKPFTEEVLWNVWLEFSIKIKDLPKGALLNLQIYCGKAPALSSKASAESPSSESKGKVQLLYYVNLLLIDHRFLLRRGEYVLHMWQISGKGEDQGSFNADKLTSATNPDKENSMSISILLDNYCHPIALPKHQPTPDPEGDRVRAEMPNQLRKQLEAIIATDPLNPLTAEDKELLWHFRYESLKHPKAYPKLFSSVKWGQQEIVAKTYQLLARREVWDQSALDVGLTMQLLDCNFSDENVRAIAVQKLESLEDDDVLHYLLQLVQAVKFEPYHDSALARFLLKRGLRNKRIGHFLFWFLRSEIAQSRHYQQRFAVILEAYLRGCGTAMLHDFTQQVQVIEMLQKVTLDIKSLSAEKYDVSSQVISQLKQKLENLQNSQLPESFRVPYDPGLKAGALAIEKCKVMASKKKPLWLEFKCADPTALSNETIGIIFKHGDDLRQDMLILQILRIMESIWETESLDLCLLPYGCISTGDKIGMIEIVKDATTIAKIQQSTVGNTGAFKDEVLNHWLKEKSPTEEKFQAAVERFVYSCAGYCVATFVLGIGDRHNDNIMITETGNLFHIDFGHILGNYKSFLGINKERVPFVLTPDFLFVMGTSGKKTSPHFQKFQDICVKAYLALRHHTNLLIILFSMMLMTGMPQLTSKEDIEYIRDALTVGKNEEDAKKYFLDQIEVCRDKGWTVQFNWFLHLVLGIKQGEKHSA
T1 sequence (Q8WYR1 whole entry partner, species assumed): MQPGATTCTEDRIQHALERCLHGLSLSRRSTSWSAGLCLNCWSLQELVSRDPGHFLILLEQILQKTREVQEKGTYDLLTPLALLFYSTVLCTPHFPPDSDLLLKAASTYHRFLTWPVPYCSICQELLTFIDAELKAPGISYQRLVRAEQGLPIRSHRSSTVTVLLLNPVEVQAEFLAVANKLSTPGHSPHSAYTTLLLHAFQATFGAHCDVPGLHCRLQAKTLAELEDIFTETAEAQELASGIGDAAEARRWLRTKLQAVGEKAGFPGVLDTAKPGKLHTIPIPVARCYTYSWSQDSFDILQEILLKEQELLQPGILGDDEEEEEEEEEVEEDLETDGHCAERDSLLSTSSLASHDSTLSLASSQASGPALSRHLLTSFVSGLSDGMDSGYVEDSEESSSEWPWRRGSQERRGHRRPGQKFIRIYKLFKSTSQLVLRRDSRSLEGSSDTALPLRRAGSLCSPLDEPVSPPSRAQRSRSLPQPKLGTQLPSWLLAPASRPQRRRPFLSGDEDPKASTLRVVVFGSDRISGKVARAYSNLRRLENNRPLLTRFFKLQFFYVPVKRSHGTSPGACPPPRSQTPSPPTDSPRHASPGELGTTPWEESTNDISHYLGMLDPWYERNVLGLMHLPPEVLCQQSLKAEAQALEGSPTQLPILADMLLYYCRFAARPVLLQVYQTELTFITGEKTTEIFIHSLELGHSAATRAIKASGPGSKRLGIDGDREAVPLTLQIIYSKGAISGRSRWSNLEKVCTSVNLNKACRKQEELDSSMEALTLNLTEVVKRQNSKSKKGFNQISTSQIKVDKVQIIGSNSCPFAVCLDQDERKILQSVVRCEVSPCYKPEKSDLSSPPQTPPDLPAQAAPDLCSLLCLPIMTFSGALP

| IC50 [nM] | SMILES |
| --- | --- |
| 4 | Cc1ccc(OC(=O)N2CCOc3ccc(C=C4SC(=S)NC4=O)cc32)cc1 [Example 18, 6-(4-Oxo-2-thioxo-thiazolidin-5-ylidenemethyl)-2,3-dihydro-1,4-benzoxazine-4-carboxylic acid p-tolyl ester] |
| 100 | COc1cccc(C(=O)N2CCOc3ccc(C=C4SC(=S)NC4=O)cc32)c1 [Example 21, 5-[4-(3-Methoxy-benzoyl)-3,4-dihydro-2H-1,4-benzoxazin-6-ylmethylene]-2-thioxo-thiazolidin-4-one] |
| 545 | CCc1ccc(C(=O)N2CCOc3ccc(C=C4SC(=S)NC4=O)cc32)cc1 [Example 26, 5-[4-(4-Ethyl-benzoyl)-3,4-dihydro-2H-1,4-benzoxazin-6-ylmethylene]-2-thioxo-thiazolidin-4-one] |
| 570 | O=C1NC(=S)SC1=Cc1ccc2c(c1)N(C(=O)c1ccc3ccccc3c1)CCO2 [Example 29, 5-[4-(Naphthalene-2-carbonyl)-3,4-dihydro-2H-1,4-benzoxazin-6-ylmethylene]-2-thioxo-thiazolidin-4-one] |
| 9 | CC(C)C(=O)N1CCOc2ccc(C=C3SC(=S)NC3=O)cc21 [Example 31, 5-(4-Isobutyryl-3,4-dihydro-2H-1,4-benzoxazin-6-ylmethylene)-2-thioxo-thiazolidin-4-one] |
| 4000 | O=C1NC(=S)SC1=Cc1ccc2c(c1)N(C(=O)C1CC1)CCO2 [Example 32, 5-(4-Cyclopropanecarbonyl-3,4-dihydro-2H-1,4-benzoxazin-6-ylmethylene)-2-thioxo-thiazolidin-4-one] |
| 36 | O=C1NC(=S)SC1=Cc1ccc2c(c1)N(C(=O)Cc1cccs1)CCO2 [Example 35, 5-[4-(2-Thiophen-2-yl-acetyl)-3,4-dihydro-2H-1,4-benzoxazin-6-ylmethylene]-2-thioxo-thiazolidin-4-one] |
| 5 | O=C1NC(=S)SC1=Cc1ccc2c(c1)N(C(=O)CCC1CCCC1)CCO2 [Example 36, 5-[4-(3-Cyclopentyl-propionyl)-3,4-dihydro-2H-1,4-benzoxazin-6-ylmethylene]-2-thioxo-thiazolidin-4-one] |
| 7 | O=C1NC(=S)SC1=Cc1ccc2c(c1)N(C(=O)C=Cc1ccccc1)CCO2 [Example 37, 5-[4-(3-Phenyl-acryloyl)-3,4-dihydro-2H-1,4-benzoxazin-6-ylmethylene]-2-thioxo-thiazolidin-4-one] |
| 25 | O=C1NC(=S)SC1=Cc1ccc2c(c1)N(C(=O)COc1ccccc1)CCO2 [Example 38, 5-[4-(2-Phenoxy-acetyl)-3,4-dihydro-2H-1,4-benzoxazin-6-ylmethylene]-2-thioxo-thiazolidin-4-one] |
| 12 | O=C1NC(=S)SC1=Cc1ccc2c(c1)N(C(=O)CSc1ccccc1)CCO2 [Example 40, 5-[4-(2-Phenylsulfanyl-acetyl)-3,4-dihydro-2H-1,4-benzoxazin-6-ylmethylene]-2-thioxo-thiazolidin-4-one] |
| 150 | O=C1NC(=S)SC1=Cc1ccc2c(c1)N(C(=O)c1cccs1)CCO2 [Example 42, 5-[4-(Thiophene-2-carbonyl)-3,4-dihydro-2H-1,4-benzoxazin-6-ylmethylene]-2-thioxo-thiazolidin-4-one] |

Second part, the compound before the results:

| SMILES | IC50 [nM] |
| --- | --- |
| O=C1NC(=S)SC1=Cc1ccc2c(c1)N(CCc1ccccc1)CCCO2 [Example 16, 5-(9-Phenethyl-6,7,8,9-tetrahydro-5-oxa-9-aza-benzocyclohepten-2-ylmethylene)-2-thioxo-thiazolidin-4-one] | 80 |
| O=C1NC(=S)SC1=Cc1ccc2c(c1)N(C(=O)Oc1ccccc1)CCO2 [Example 17, 6-(4-Oxo-2-thioxo-thiazolidin-5-ylidenemethyl)-2,3-dihydro-1,4-benzoxazine-4-carboxylic acid phenyl ester] | 3 |
| O=C1NC(=S)SC1=Cc1ccc2c(c1)N(C(=O)Cc1ccccc1)CCO2 [Example 19, 5-(4-Phenylacetyl-3,4-dihydro-2H-1,4-benzoxazin-6-ylmethylene)-2-thioxo-thiazolidin-4-one] | 55 |
| COc1ccc(CC(=O)N2CCOc3ccc(C=C4SC(=S)NC4=O)cc32)cc1OC [Example 20, 5-{4-[2-(3,4-Dimethoxy-phenyl)-acetyl]-3,4-dihydro-2H-1,4-benzoxazin-6-ylmethylene}-2-thioxo-thiazolidin-4-one] | 73 |
| COc1cc(C(=O)N2CCOc3ccc(C=C4SC(=S)NC4=O)cc32)cc(OC)c1OC [Example 22, 2-Thioxo-5-[4-(3,4,5-trimethoxy-benzoyl)-3,4-dihydro-2H-1,4-benzoxazin-6-ylmethylene]-thiazolidin-4-one] | 4000 |
| Cc1cccc(C(=O)N2CCOc3ccc(C=C4SC(=S)NC4=O)cc32)c1 [Example 23, 5-[4-(3-Methyl-benzoyl)-3,4-dihydro-2H-1,4-benzoxazin-6-ylmethylene]-2-thioxo-thiazolidin-4-one] | 101 |
| O=C1NC(=S)SC1=Cc1ccc2c(c1)N(C(=O)c1ccc(-c3ccccc3)cc1)CCO2 [Example 24, 5-[4-(Biphenyl-4-carbonyl)-3,4-dihydro-2H-1,4-benzoxazin-6-ylmethylene]-2-thioxo-thiazolidin-4-one] | 560 |
| CC(C)(C)c1ccc(C(=O)N2CCOc3ccc(C=C4SC(=S)NC4=O)cc32)cc1 [Example 25, 5-[4-(4-tert-Butyl-benzoyl)-3,4-dihydro-2H-1,4-benzoxazin-6-ylmethylene]-2-thioxo-thiazolidin-4-one] | 245 |
| CCCCCCc1ccc(C(=O)N2CCOc3ccc(C=C4SC(=S)NC4=O)cc32)cc1 [Example 27, 5-[4-(4-Hexyl-benzoyl)-3,4-dihydro-2H-1,4-benzoxazin-6-ylmethylene]-2-thioxo-thiazolidin-4-one] | 2020 |
| N#Cc1ccc(C(=O)N2CCOc3ccc(C=C4SC(=S)NC4=O)cc32)cc1 [Example 28, 4-[6-(4-Oxo-2-thioxo-thiazolidin-5-ylidenemethyl)-2,3-dihydro-1,4-benzoxazine-4-carbonyl]-benzonitrile] | 385 |
| CCC(C(=O)N1CCOc2ccc(C=C3SC(=S)NC3=O)cc21)c1ccccc1 (stereo not drawn) [Example 30, 5-[4-(2-Phenyl-butyryl)-3,4-dihydro-2H-1,4-benzoxazin-6-ylmethylene]-2-thioxo-thiazolidin-4-one] | 735 |
| O=C1NC(=S)SC1=Cc1ccc2c(c1)N(C(=O)C1CCCC1)CCO2 [Example 33, 5-(4-Cyclopentanecarbonyl-3,4-dihydro-2H-1,4-benzoxazin-6-ylmethylene)-2-thioxo-thiazolidin-4-one] | 14 |
| CCCCCCC(=O)N1CCOc2ccc(C=C3SC(=S)NC3=O)cc21 [Example 34, 5-(4-Heptanoyl-3,4-dihydro-2H-1,4-benzoxazin-6-ylmethylene)-2-thioxo-thiazolidin-4-one] | 4 |
| O=C1NC(=S)SC1=Cc1ccc2c(c1)N(C(=O)COCc1ccccc1)CCO2 [Example 39, 5-[4-(2-Benzyloxy-acetyl)-3,4-dihydro-2H-1,4-benzoxazin-6-ylmethylene]-2-thioxo-thiazolidin-4-one] | 14 |
| O=C1NC(=S)SC1=Cc1ccc2c(c1)N(C(=O)c1cnc3ccccc3n1)CCO2 [Example 43, 5-[4-(Quinoxaline-2-carbonyl)-3,4-dihydro-2H-1,4-benzoxazin-6-ylmethylene]-2-thioxo-thiazolidin-4-one] | 565 |
